# Experimental data: article PMC5218480 (PLoS ONE, 2017)
# Tested on: MV-4-11 cells
# Experiment: Gene expression microarray analysis (Affymetrix PrimeView) and GSEA
# Format: cell-based, human
# Parameters: RFU PODN (11730768_x_at) / Fold change /veh PODN (11730768_x_at) / RFU LINC00158 (11744669_a_at) / Fold change /veh LINC00158 (11744669_a_at) / RFU DUSP10 (11751237_a_at) / Fold change /veh DUSP10 (11751237_a_at) / RFU ID3 (11757404_x_at) / Fold change /veh ID3 (11757404_x_at) / RFU PLEKHG5 (11737974_s_at) / Fold change /veh PLEKHG5 (11737974_s_at) / RFU LRRC4B (11730491_at) / Fold change /veh LRRC4B (11730491_at) / RFU GIMAP4 (11747438_a_at) / Fold change /veh GIMAP4 (11747438_a_at) / RFU KRT8 (11758183_x_at) / Fold change /veh KRT8 (11758183_x_at) / RFU CNN1 (11734310_a_at) / Fold change /veh CNN1 (11734310_a_at) / RFU VPS37D (11726825_at) / Fold change /veh VPS37D (11726825_at) / RFU C10orf10 (11716522_x_at) / Fold change /veh C10orf10 (11716522_x_at) / RFU KIR2DL2 /// KIR2DL4 /// KIR2DL5A /// KIR2DL5B /// KIR2DS1 /// KIR2DS2 /// KIR2DS3 /// KIR2DS4 /// KIR3DL3 /// KIR3DL3 /// KIR3DS1 (11738374_at) / Fold change /veh KIR2DL2 /// KIR2DL4 /// KIR2DL5A /// KIR2DL5B /// KIR2DS1 /// KIR2DS2 /// KIR2DS3 /// KIR2DS4 /// KIR3DL3 /// KIR3DL3 /// KIR3DS1 (11738374_at) / RFU C1QL1 (11718748_at) / Fold change /veh C1QL1 (11718748_at) / RFU TMPRSS4 (11747572_a_at) / Fold change /veh TMPRSS4 (11747572_a_at) / RFU HAMP (11756126_x_at) / Fold change /veh HAMP (11756126_x_at) / RFU RNFT2 (11725882_a_at) / Fold change /veh RNFT2 (11725882_a_at) / RFU NR4A2 (11747474_a_at) / Fold change /veh NR4A2 (11747474_a_at) / RFU ABCC12 (11746883_a_at) / Fold change /veh ABCC12 (11746883_a_at) / RFU TMEM136 (11760407_x_at) / Fold change /veh TMEM136 (11760407_x_at) / RFU CLDN22 /// WWC2 (11732394_at) / Fold change /veh CLDN22 /// WWC2 (11732394_at) / RFU HLA-DPB1 (11760878_x_at) / Fold change /veh HLA-DPB1 (11760878_x_at) / RFU SPINT1 (11716480_a_at) / Fold change /veh SPINT1 (11716480_a_at) / RFU GAP43 (11754022_s_at) / Fold change /veh GAP43 (11754022_s_at) / RFU A4GNT (11735810_at) / Fold change /veh A4GNT (11735810_at) / RFU PRB3 (11715151_x_at) / Fold change /veh PRB3 (11715151_x_at) / RFU TUBB4B (11761932_at) / Fold change /veh TUBB4B (11761932_at) / RFU CAPN14 (11732068_a_at) / Fold change /veh CAPN14 (11732068_a_at) / RFU TMCC2 (11721928_a_at) / Fold change /veh TMCC2 (11721928_a_at) / RFU IRGQ (11745062_a_at) / Fold change /veh IRGQ (11745062_a_at) / RFU FAM174B (11720279_a_at) / Fold change /veh FAM174B (11720279_a_at) / RFU TMPRSS4 (11748680_a_at) / Fold change /veh TMPRSS4 (11748680_a_at) / RFU FAM212B (11763350_a_at) / Fold change /veh FAM212B (11763350_a_at) / RFU PLEKHG5 (11743358_a_at) / Fold change /veh PLEKHG5 (11743358_a_at) / RFU ZSCAN30 (11745921_a_at) / Fold change /veh ZSCAN30 (11745921_a_at) / RFU CMKLR1 (11741424_a_at) / Fold change /veh CMKLR1 (11741424_a_at) / RFU LOC101060620 /// MAPK8IP1 (11723275_at) / Fold change /veh LOC101060620 /// MAPK8IP1 (11723275_at) / RFU SPTSSB (11747773_x_at) / Fold change /veh SPTSSB (11747773_x_at) / RFU PRSS12 (11739890_at) / Fold change /veh PRSS12 (11739890_at) / RFU BIN1 (11741810_x_at) / Fold change /veh BIN1 (11741810_x_at) / RFU WNT11 (11732464_a_at) / Fold change /veh WNT11 (11732464_a_at) / RFU C10orf10 (11716521_a_at) / Fold change /veh C10orf10 (11716521_a_at) / RFU C5orf56 (11738089_at) / Fold change /veh C5orf56 (11738089_at) / RFU CYB561 (11721691_x_at) / Fold change /veh CYB561 (11721691_x_at) / RFU ANKRD19P (11752326_a_at) / Fold change /veh ANKRD19P (11752326_a_at) / RFU OR2T12 /// OR2T33 /// OR2T8 (11738714_s_at) / Fold change /veh OR2T12 /// OR2T33 /// OR2T8 (11738714_s_at) / RFU VCAN (11748164_a_at) / Fold change /veh VCAN (11748164_a_at) / RFU JSRP1 (11732532_at) / Fold change /veh JSRP1 (11732532_at) / RFU KRTAP10-11 (11738290_x_at) / Fold change /veh KRTAP10-11 (11738290_x_at) / RFU MYO3A (11730013_a_at) / Fold change /veh MYO3A (11730013_a_at) / RFU EBF3 (11725865_a_at) / Fold change /veh EBF3 (11725865_a_at) / RFU CAMK2N1 (11719241_x_at) / Fold change /veh CAMK2N1 (11719241_x_at) / RFU C5orf56 (11738088_a_at) / Fold change /veh C5orf56 (11738088_a_at) / RFU OLFML3 (11715873_a_at) / Fold change /veh OLFML3 (11715873_a_at) / RFU LOC100653217 /// NTM (11731650_a_at) / Fold change /veh LOC100653217 /// NTM (11731650_a_at) / RFU MAPK11 (11762145_a_at) / Fold change /veh MAPK11 (11762145_a_at) / RFU FIZ1 (11724087_x_at) / Fold change /veh FIZ1 (11724087_x_at) / RFU OASL (11726364_x_at) / Fold change /veh OASL (11726364_x_at) / RFU SOX15 (11748057_x_at) / Fold change /veh SOX15 (11748057_x_at) / RFU CD79A (11719716_a_at) / Fold change /veh CD79A (11719716_a_at) / RFU HIST1H1D (11736915_at) / Fold change /veh HIST1H1D (11736915_at) / RFU CASKIN2 (11723855_a_at) / Fold change /veh CASKIN2 (11723855_a_at) / RFU LOC730098 (11760151_x_at) / Fold change /veh LOC730098 (11760151_x_at) / RFU OR4N2 (11742367_at) / Fold change /veh OR4N2 (11742367_at) / RFU PRRT2 (11749266_a_at) / Fold change /veh PRRT2 (11749266_a_at) / RFU SNX32 (11753110_a_at) / Fold change /veh SNX32 (11753110_a_at) / RFU CDHR5 (11726645_a_at) / Fold change /veh CDHR5 (11726645_a_at) / RFU RCAN1 (11760418_a_at) / Fold change /veh RCAN1 (11760418_a_at) / RFU FAM167A (11723789_a_at) / Fold change /veh FAM167A (11723789_a_at) / RFU FAM26E (11764081_at) / Fold change /veh FAM26E (11764081_at) / RFU ISYNA1 (11749810_s_at) / Fold change /veh ISYNA1 (11749810_s_at) / RFU ACY1 (11761880_at) / Fold change /veh ACY1 (11761880_at) / RFU 11764098_at / Fold change /veh 11764098_at / RFU SAMD14 (11745864_x_at) / Fold change /veh SAMD14 (11745864_x_at) / RFU NPB (11741838_a_at) / Fold change /veh NPB (11741838_a_at) / RFU TMPRSS6 (11731388_a_at) / Fold change /veh TMPRSS6 (11731388_a_at) / RFU KRTAP10-2 (11738614_at) / Fold change /veh KRTAP10-2 (11738614_at) / RFU ARHGAP8 /// PRR5-ARHGAP8 (11727945_x_at) / Fold change /veh ARHGAP8 /// PRR5-ARHGAP8 (11727945_x_at) / RFU KRTAP5-7 /// NADSYN1 (11734609_at) / Fold change /veh KRTAP5-7 /// NADSYN1 (11734609_at) / RFU RASL12 (11751679_a_at) / Fold change /veh RASL12 (11751679_a_at) / RFU CDKN2B (11736163_a_at) / Fold change /veh CDKN2B (11736163_a_at) / RFU PRF1 (11729649_at) / Fold change /veh PRF1 (11729649_at) / RFU, ZNF638 /// ZNF638-IT1 / Fold change vs veh, ZNF638 /// ZNF638-IT1 / RFU, PANK3 / Fold change vs veh, PANK3 / RFU, SH3YL1 / Fold change vs veh, SH3YL1 / RFU, ZEB2 / Fold change vs veh, ZEB2 / RFU, NRIP1 / Fold change vs veh, NRIP1 / RFU, PTTG1IP / Fold change vs veh, PTTG1IP / RFU, CAPN2 / Fold change vs veh, CAPN2 / RFU, MED14 / Fold change vs veh, MED14 / RFU, SNORA58 / Fold change vs veh, SNORA58 / RFU, C1orf63 / Fold change vs veh, C1orf63 / RFU, LRRFIP1 / Fold change vs veh, LRRFIP1 / RFU, NDUFAF7 / Fold change vs veh, NDUFAF7 / RFU, SLC12A2 / Fold change vs veh, SLC12A2 / RFU, IBTK / Fold change vs veh, IBTK / RFU, ESF1 / Fold change vs veh, ESF1 / Fold change vs veh, TMEM50B / RFU, TAOK1 / Fold change vs veh, TAOK1 / RFU, ACBD3 / Fold change vs veh, ACBD3 / RFU, TMA16 / Fold change vs veh, TMA16 / RFU, RWDD3 / Fold change vs veh, RWDD3 / RFU, BCAT1 / Fold change vs veh, BCAT1 / RFU, EDEM3 / Fold change vs veh, EDEM3 / RFU, TMEM33 / Fold change vs veh, TMEM33 / RFU, WDR75 / Fold change vs veh, WDR75 / RFU, AHCTF1 / Fold change vs veh, AHCTF1 / RFU, TFRC / Fold change vs veh, TFRC / RFU, ZDHHC17 / Fold change vs veh, ZDHHC17 / RFU, NOM1 / Fold change vs veh, NOM1 / RFU, ARL8B / Fold change vs veh, ARL8B / RFU, ZBTB11 / Fold change vs veh, ZBTB11 / RFU, TAMM41 / Fold change vs veh, TAMM41 / RFU, KIAA1704 /// LOC100996395 / Fold change vs veh, KIAA1704 /// LOC100996395 / RFU, ING1 / Fold change vs veh, ING1 / RFU, TRMT61B / Fold change vs veh, TRMT61B / RFU, FUBP3 / Fold change vs veh, FUBP3 / RFU, TP53 / Fold change vs veh, TP53 / RFU, TNKS2 / Fold change vs veh, TNKS2 / RFU, ZFP14 / Fold change vs veh, ZFP14 / RFU, ACTR2 / Fold change vs veh, ACTR2 / RFU, PPP3R1 / Fold change vs veh, PPP3R1 / RFU, PIK3R1 / Fold change vs veh, PIK3R1 / RFU, HNRNPA1 / Fold change vs veh, HNRNPA1 / RFU, RNF170 / Fold change vs veh, RNF170 / RFU, ZNF28 / Fold change vs veh, ZNF28 / RFU, RNGTT / Fold change vs veh, RNGTT / RFU, OGT / Fold change vs veh, OGT / RFU, BRD1 / Fold change vs veh, BRD1 / RFU, MARS / Fold change vs veh, MARS / RFU, ZNF655 / Fold change vs veh, ZNF655 / RFU, FAHD1 / Fold change vs veh, FAHD1 / RFU, BDP1 / Fold change vs veh, BDP1 / RFU, LRRCC1 / Fold change vs veh, LRRCC1 / RFU, ARID1A / Fold change vs veh, ARID1A / RFU, ZNF146 / Fold change vs veh, ZNF146 / RFU, ZNF330 / Fold change vs veh, ZNF330 / RFU, GPN3 / Fold change vs veh, GPN3 / RFU, C9orf123 / Fold change vs veh, C9orf123 / RFU, N4BP2L2 / Fold change vs veh, N4BP2L2 / RFU, ARFIP1 / Fold change vs veh, ARFIP1 / RFU, FAM179B / Fold change vs veh, FAM179B / RFU, BCL10 / Fold change vs veh, BCL10 / RFU, UHRF1BP1L / Fold change vs veh, UHRF1BP1L / RFU, BET1 / Fold change vs veh, BET1 / RFU, CNOT2 / Fold change vs veh, CNOT2 / RFU, ZNF268 / Fold change vs veh, ZNF268 / Fold change vs veh, ZNF507 / RFU, DGCR2 / Fold change vs veh, DGCR2 / RFU, WDSUB1 / Fold change vs veh, WDSUB1 / Fold change vs veh, HSP90B1 /// MIR3652 / RFU, ADSS / Fold change vs veh, ADSS / RFU, GK / Fold change vs veh, GK / RFU, ZNF148 / Fold change vs veh, ZNF148 / RFU, TAF9 / Fold change vs veh, TAF9 / RFU, SLC1A5 / Fold change vs veh, SLC1A5 / RFU, SLMO2 / Fold change vs veh, SLMO2 / RFU, ABCC4 / Fold change vs veh, ABCC4 / RFU, LOC101060439 /// RAP1B / Fold change vs veh, LOC101060439 /// RAP1B / RFU, RFX7 / Fold change vs veh, RFX7 / RFU, GTPBP10 / Fold change vs veh, GTPBP10 / RFU, CNEP1R1 / Fold change vs veh, CNEP1R1 / RFU, BIVM-ERCC5 /// ERCC5 / Fold change vs veh, BIVM-ERCC5 /// ERCC5 / RFU, ILF3 / Fold change vs veh, ILF3 / RFU 11762660_at / Fold change /veh 11762660_at / RFU VCAN (11757783_s_at) / Fold change /veh VCAN (11757783_s_at) / RFU DDX43 (11728927_at) / Fold change /veh DDX43 (11728927_at) / RFU KRT8 (11758188_x_at) / Fold change /veh KRT8 (11758188_x_at) / RFU NKD1 (11759106_at) / Fold change /veh NKD1 (11759106_at) / RFU SRD5A1 (11742802_a_at) / Fold change /veh SRD5A1 (11742802_a_at) / RFU TPSAB1 /// TPSB2 (11721975_s_at) / Fold change /veh TPSAB1 /// TPSB2 (11721975_s_at) / RFU GSTM3 (11746129_a_at) / Fold change /veh GSTM3 (11746129_a_at) / RFU IL23R (11737362_x_at) / Fold change /veh IL23R (11737362_x_at) / RFU TMEM51 (11727254_a_at) / Fold change /veh TMEM51 (11727254_a_at) / RFU PIWIL2 (11732686_x_at) / Fold change /veh PIWIL2 (11732686_x_at) / RFU ORM1 (11744905_x_at) / Fold change /veh ORM1 (11744905_x_at) / RFU CCDC152 (11743942_at) / Fold change /veh CCDC152 (11743942_at) / RFU ECM1 (11717891_a_at) / Fold change /veh ECM1 (11717891_a_at) / RFU IL23R (11748794_a_at) / Fold change /veh IL23R (11748794_a_at) / RFU TNFAIP8L3 (11732012_x_at) / Fold change /veh TNFAIP8L3 (11732012_x_at) / RFU MBOAT4 (11741988_at) / Fold change /veh MBOAT4 (11741988_at) / RFU 11764193_at / Fold change /veh 11764193_at / RFU TMEM53 (11763286_at) / Fold change /veh TMEM53 (11763286_at) / RFU MAGEB2 (11727129_at) / Fold change /veh MAGEB2 (11727129_at) / RFU TMEM200A (11744735_a_at) / Fold change /veh TMEM200A (11744735_a_at) / RFU CCDC152 (11751479_a_at) / Fold change /veh CCDC152 (11751479_a_at) / RFU FAM211A (11726209_a_at) / Fold change /veh FAM211A (11726209_a_at) / RFU RGS16 (11746705_a_at) / Fold change /veh RGS16 (11746705_a_at) / RFU VCAN (11755009_s_at) / Fold change /veh VCAN (11755009_s_at) / RFU RHOB (11743442_s_at) / Fold change /veh RHOB (11743442_s_at) / RFU RGS16 (11720943_a_at) / Fold change /veh RGS16 (11720943_a_at) / RFU RGS16 (11720944_at) / Fold change /veh RGS16 (11720944_at) / RFU, VPS4B / Fold change vs veh, VPS4B / RFU, CREB1 / Fold change vs veh, CREB1 / RFU, DNAJC13 / Fold change vs veh, DNAJC13 / RFU, GNAQ / Fold change vs veh, GNAQ / RFU, CDK5R1 / Fold change vs veh, CDK5R1 / RFU, ZRANB3 / Fold change vs veh, ZRANB3 / RFU, CUL4A / Fold change vs veh, CUL4A / RFU, CCNY / Fold change vs veh, CCNY / RFU, UFL1 / Fold change vs veh, UFL1 / RFU, COG3 / Fold change vs veh, COG3 / RFU, DIAPH2 / Fold change vs veh, DIAPH2 / RFU, SKA2 / Fold change vs veh, SKA2 / RFU, AFF3 / Fold change vs veh, AFF3 / RFU, LMF1 / Fold change vs veh, LMF1 / RFU, IPO11 / Fold change vs veh, IPO11 / RFU, DFFB / Fold change vs veh, DFFB / RFU, FOXP1 / Fold change vs veh, FOXP1 / RFU, CARD8 / Fold change vs veh, CARD8 / RFU, STRN3 / Fold change vs veh, STRN3 / RFU, ADK / Fold change vs veh, ADK / RFU, RASSF2 / Fold change vs veh, RASSF2 / RFU, WIPF1 / Fold change vs veh, WIPF1 / RFU, LARP1B / Fold change vs veh, LARP1B / RFU, RASA1 / Fold change vs veh, RASA1 / RFU, RB1 / Fold change vs veh, RB1 / RFU, PPFIA1 / Fold change vs veh, PPFIA1 / RFU, MAT2A / Fold change vs veh, MAT2A / RFU, CCT5 / Fold change vs veh, CCT5 / RFU, WDR92 / Fold change vs veh, WDR92 / RFU, CUX1 / Fold change vs veh, CUX1 / RFU, TTC7A / Fold change vs veh, TTC7A / RFU, TMEM135 / Fold change vs veh, TMEM135 / RFU, DEPTOR / Fold change vs veh, DEPTOR / RFU, CPM / Fold change vs veh, CPM / RFU, DNAJB6 / Fold change vs veh, DNAJB6 / RFU, CACNA2D3 / Fold change vs veh, CACNA2D3 / RFU, DTX4 / Fold change vs veh, DTX4 / RFU, TFCP2 / Fold change vs veh, TFCP2 / RFU, GMCL1 /// GMCL1P1 / Fold change vs veh, GMCL1 /// GMCL1P1 / RFU, AEBP2 / Fold change vs veh, AEBP2 / RFU, SNHG1 /// SNORD22 /// SNORD25 /// SNORD26 /// SNORD27 /// SNORD28 /// SNORD29 /// SNORD31 / Fold change vs veh, SNHG1 /// SNORD22 /// SNORD25 /// SNORD26 /// SNORD27 /// SNORD28 /// SNORD29 /// SNORD31 / Fold change (Aza/veh), C12orf56 (ProbeSet 11735607_a_at) / Fold change (ACY-1035/veh), C12orf56 (ProbeSet 11735607_a_at) / Fold change (Aza/veh), FGFR1OP (ProbeSet 11751329_s_at) / Fold change (ACY-1035/veh), FGFR1OP (ProbeSet 11751329_s_at) / Fold change (Aza/veh), VPS36 (ProbeSet 11739960_a_at) / Fold change (ACY-1035/veh), VPS36 (ProbeSet 11739960_a_at) / RFU SYPL1 (11715823_x_at) / Fold change /veh SYPL1 (11715823_x_at) / RFU IGFBP7 (11715501_s_at) / Fold change /veh IGFBP7 (11715501_s_at) / RFU REEP3 (11722064_at) / Fold change /veh REEP3 (11722064_at) / RFU IGLL1 (11728026_x_at) / Fold change /veh IGLL1 (11728026_x_at): dose or concentration left out as unconfirmed
# Settings: ProbeSet 11762504_a_at; LIST D
smiles,measurement,value
Nc1ccc(-c2cccs2)cc1NC(=O)c1ccc2c(c1)cc(C1CC1)n2CCN1CCOCC1 [ACY-1035],"RFU, ZRANB3",82.93 RFU
